Laboratory results reported in publication PMC11904701, “Isolation and Characterization of Secondary Metabolites from Endemic and Edible Polygonum sivasicum with In Vitro Antioxidant and Cytotoxic Activities” (ACS Omega, 2025).
≈ marks a conversion by molar mass, not a printed value. One block for each molecule: values may come before it.

Columns and labels:
[1] = CUPRAC (Cupric Reducing Antioxidant Capacity) method; type: biochemical; conditions: A0.5 values, mean ± SEM of three parallel measurements
Description: (§1) All data on bioactivity tests were averages of triplicate analyses. Activity assays were carried out at six concentrations, and the results are given as the IC50 values. The data were analyzed using One-way ANOVA followed by Tukey’s post hoc test. p < 0.05, p < 0.001 and p < 0.0001 were considered statistically significant. Data were recorded as mean ± SEM (standard error of the mean). […] IBM SPSS statistical software (Version: 28.0.0.0 (190)) and GraphPad Prism 10.2 were used for statistical analysis.

[2] = ABTS cation radical assay; type: biochemical; conditions: mean ± SEM of three parallel measurements
Description: as §1

HepG2 cells = test system: HepG2 cells; set-up: method as in doi:10.14233/ajchem.2013.15043; conditions: cited from earlier work
V79–4 cells = test system: V79–4 cells; set-up: method as in PMID 18550394; conditions: cited from earlier work
[3] = test system: MCF-7 (human breast cancer cells); assay: MTT cell viability assay, MCF-7; type: cell-based; conditions: 24 h; for IC50: Homo sapiens, MCF7, MTT, mean ± SD (n = 3); for selectivity index MCF-7: versus CCD-1079Sk
Description: (§2) The A549 (human lung carcinoma epithelial cells, ATCC, CCL-185), MCF-7 (human breast cancer cells, ATCC, HTB-22), and CCD-1079Sk (human normal skin fibroblast epithelial cells, ATCC, CRL-2097) cell lines were initially seeded into culture flasks and grown in DMEM supplemented with 10% FBS (Sigma-Aldrich, St Louis, MO), 1% penicillin/streptomycin (Thermo Fisher Scientific, Carlsbad, CA). The cell lines were maintained in a humidified atmosphere of 5% CO2 at a temperature of 37 °C. The culture medium was changed every two days until the cells reached 80% confluence.
(§3) 3-(4,5-dimethyl-2-thiazolyl)-2,5-diphenyl-2H-tetrazolium bromide (MTT) was used to assess the cytotoxicity of hyperoside, annphenone, daucosterol, and P. sivasicum methanol extract. Cells were grown in 96-well plates at a density of 5 × 10^3 cells per well. In total, 70 to 80% of confluent cells (after 24 h) were treated with different concentrations of compounds (prepared in a medium containing 1% DMSO) in the growth medium for 24 h. At the end of the incubation periods, MTT solution was added to the wells to give a final concentration of 0.5 mg/mL. The cells were then incubated at 37 °C for a further 3.5 h. To solubilize the formazan crystals, 100 μL of DMSO was added to each well. The optical density was read at 570 nm by using an ELISA microplate reader and directly correlated with the number of viable cells. For each concentration, the data for which the measurement was repeated at least three times were compared. The relative % cell viability and the IC50 value were determined by plotting the graph as a function of concentration. Untreated cells were considered as control, and medium without cells was considered as background control. To determine the cytotoxic effect of compounds on cell viability, cells that were not treated with compounds were considered 100% viable, and cell viability was calculated according to the following formula: % Cell Viability = Sample/Control × 100.
(§4) All data on bioactivity tests were averages of triplicate analyses. Activity assays were carried out at six concentrations, and the results are given as the IC50 values. The data were analyzed using One-way ANOVA followed by Tukey’s post hoc test. p < 0.05, p < 0.001 and p < 0.0001 were considered statistically significant. Data were recorded as mean ± SEM (standard error of the mean). Significant differences between means were determined by the one-way ANOVA, and p values < 0.05 were regarded as significant. IBM SPSS statistical software (Version: 28.0.0.0 (190)) and GraphPad Prism 10.2 were used for statistical analysis.

[4] = test system: A549 (human lung carcinoma epithelial cells); assay: MTT cell viability assay, A549; conditions: for IC50: Homo sapiens, A549, 24 h, read-out: IC50, 24 h, A549; for selectivity index A549: versus CCD-1079Sk, 24 h
A549 cell line = test system: A549 cell line; set-up: method as in PMID 28856938; conditions: data not included in the cited paper; cited from earlier work
[5] = set-up: method as in PMID 28856938; conditions: annphenone isolated from a Euphorbia species; cited from earlier work
Hep-3B cell line = test system: Hep-3B cell line; set-up: method as in PMID 28856938; conditions: data not included in the cited paper; cited from earlier work
MCF-7 cell line = test system: MCF-7 cell line; set-up: method as in PMID 28856938; conditions: data not included in the cited paper; cited from earlier work
[6] = test system: CCD-1079Sk (human normal skin fibroblast epithelial cells); assay: MTT cell viability assay, CCD-1079Sk; type: cell-based; conditions: 24 h, mean ± SD (n = 3)
Description: as §2, §3, §4

U87 cell line = test system: U87 cell line; set-up: method as in PMID 28856938; conditions: data not included in the cited paper; cited from earlier work
U118 cell line = test system: U118 cell line; set-up: method as in PMID 28856938; conditions: data not included in the cited paper; cited from earlier work
[7] = β-carotene linoleic acid bleaching assay; type: biochemical; conditions: mean ± SEM of three parallel measurements
Description: as §1

[8] = DPPH free radical scavenging assay; type: biochemical; conditions: mean ± SEM of three parallel measurements
Description: as §1

MCF-7 = test system: MCF-7; set-up: method as in PMID 30160115; conditions: after 24 h; cited from earlier work
breast cancer tumor = test system: breast cancer tumor; set-up: method as in PMID 30160115; conditions: mice, dose-dependent; cited from earlier work
MDA-MB-231 = test system: MDA-MB-231; set-up: method as in PMID 30160115; conditions: after 24 h; cited from earlier work

SMILES: Cc1cc(C(C)(C)C)c(O)c(C(C)(C)C)c1 [BHT, Butylated hydroxy toluene]
CUPRAC IC50 (A0.5: concentration of 0.500 Absorbance value) [1]: 26.85 ± 1.50 µg/mL
ABTS IC50 [2]: 21.67 ± 0.87 µg/mL

SMILES: O=c1[nH]cc(F)c(=O)[nH]1 [5-fluorouracil, reference compound]
antiproliferative IC50 on HepG2 cells (HepG2 cells): 0.33 µg/mL

SMILES: COc1cc(O[C@@H]2O[C@H](CO)[C@@H](O)[C@H](O)[C@H]2O)cc(O)c1C(C)=O [Annphenone, 2,4-dihydroxy-6-methoxy-acetophenone 4-O-β-D-glucopyranoside]
cytoprotective effect against H2O2-induced apoptosis (V79–4 cells): confirmed
IC50 [3]: 360 ± 20 µg/mL (≈ 1050 µM)
selectivity index MCF-7 [3]: 0.83
IC50 [4]: 250 ± 10 µg/mL (≈ 726 µM)
selectivity index A549 [4]: 1.20
cytotoxicity against A549 (A549 cell line): no cytotoxicity
DPPH scavenging IC50 [5]: 23.23 ± 1.8 µg/mL
cytotoxicity against Hep-3B (Hep-3B cell line): no cytotoxicity
cytotoxicity against MCF-7 (MCF-7 cell line): no cytotoxicity
IC50 [6]: 300 ± 50 µg/mL (≈ 871 µM)
antiproliferative IC50 on HepG2 cells (HepG2 cells): 2.0 µg/mL
cytotoxicity against U87 (U87 cell line): no cytotoxicity
cytotoxicity against U118 (U118 cell line): no cytotoxicity

SMILES: COc1ccc(O)c(C(C)(C)C)c1 [BHA, Butylated hydroxy anisol]
β-carotene IC50 [7]: 1.34 ± 0.04 µg/mL
DPPH IC50 [8]: 28.59 ± 0.06 µg/mL
CUPRAC IC50 (A0.5: concentration of 0.500 Absorbance value) [1]: 24.49 ± 0.19 µg/mL
ABTS IC50 [2]: 7.23 ± 0.01 µg/mL

Now from value to molecule, other results behind:

DPPH IC50 [8]: 36.35 ± 0.24 µg/mL
CUPRAC IC50 (A0.5: concentration of 0.500 Absorbance value) [1]: 134.53 ± 0.19 µg/mL
ABTS IC50 [2]: 27.70 ± 0.28 µg/mL
SMILES: Cc1c(C)c2c(c(C)c1O)CC[C@@](C)(CCC[C@H](C)CCC[C@H](C)CCCC(C)C)O2 [α-Toc, Tocopherol]

IC50 [3]: 580 ± 20 µg/mL (≈ 1010 µM)
IC50 [4]: 180 ± 20 µg/mL (≈ 312 µM)
SMILES: CC[C@H](CC[C@@H](C)[C@H]1CC[C@H]2[C@@H]3CC=C4C[C@@H](O[C@@H]5O[C@H](CO)[C@@H](O)[C@H](O)[C@H]5O)CC[C@]4(C)[C@H]3CC[C@]12C)C(C)C [Daucosterol, β-sitosterol-3-O-β-glucopyranoside]
selectivity index MCF-7 [3]: 0.44
selectivity index A549 [4]: 1.44
IC50 (MCF-7): 30.8 mM
IC50 [6]: 260 ± 30 µg/mL (≈ 451 µM)
tumor volume (breast cancer tumor): decrease
tumor weight (breast cancer tumor): decrease
IC50 (MDA-MB-231): 49.8 mM

IC50 [3]: 40 ± 10 µg/mL (≈ 73.6 µM)
IC50 [4]: 10 ± 10 µg/mL (≈ 18.4 µM)
SMILES: COc1cccc2c1C(=O)c1c(O)c3c(c(O)c1C2=O)C[C@@](O)(C(=O)CO)C[C@@H]3O[C@H]1C[C@H](N)[C@H](O)[C@H](C)O1 [Doxorubicin, reference compound]
selectivity index MCF-7 [3]: 7.0
selectivity index A549 [4]: 28.0
IC50 [6]: 280 ± 10 µg/mL (≈ 515 µM)

IC50 [3]: 370 ± 20 µg/mL (≈ 797 µM)
IC50 [4]: 600 ± 70 µg/mL (≈ 1290 µM)
SMILES: O=c1c(O[C@@H]2O[C@H](CO)[C@H](O)[C@H](O)[C@H]2O)c(-c2ccc(O)c(O)c2)oc2cc(O)cc(O)c12 [Hyperoside, Quercetin-3-O-β-galactopyranoside]
selectivity index MCF-7 [3]: 0.67
selectivity index A549 [4]: 0.41
IC50 [6]: 250 ± 40 µg/mL (≈ 538 µM)
